pKi: −log10 of the molar value.
Key:
[1] = Solubility in organic solvents; type: physicochemical
[2] = target: [3H]BMB binding sites on rat myelin fractions; test: Competition binding assay using [3H]BMB as radioligand in isolated myelin fractions; conditions: 1.87 nM [3H]BMB, Cheng-Prusoff from IC50
Protocol: FIG. 4 illustrates plots of competition binding assays of test compounds using [^3H]BMB as the radioligand in isolated myelin fractions. The concentrations that inhibited 50% of specific binding of [^3H]BMB (IC50 values) were converted to inhibition constant (Ki). Ki values were calculated using the Cheng-Prusoff equation: Ki=IC50/(1+[L]/Kd), where [L] is the concentration of [^3H]BMB used in the assay. Data are means of three independent measurements done in duplicate.
In vitro binding assay using radioligand is the most sensitive techniques available to quantitatively determine the binding affinities of compounds to certain proteins. Our previous studies have shown that BMB binds to myelin sheaths with high affinity and specifity (Stankoff, B.; Wang, Y.; Bottlaender, M.; Aigrot, M. S.; Dolle, F. et al. Imaging of CNS myelin by positron-emission tomography. Proc Natl Acad Sci USA 2006, 103, 9304-9309). For this reason, tritiated BMB was custom synthesized by American Radiolabeled Chemicals Inc. (St Louis, Mo.) and was used as the radioligand for binding assays. This allowed us to determine the binding affinities of the newly synthesized compounds using isolated rat myelin fractions. Saturation experiment was first conducted using [^3H]BMB. […] Competitive binding assays were also conducted using [^3H]BMB as radioligand. The stilbene derivatives competed effectively with [^3H]BMB binding sites on rat myelin fractions at affinities of low micromole concentrations.
(§1) Sprague-Dawley (SD) rats were asphyxiated with CO2. When the rat had stopped breathing, the skin/fur over the neck was wetted with a spray of 70% ethanol. […] The concentration of myelin and pellet were determined by Bio-Rad Protein Assay.
The radioligand-based binding assays were carried out in 12×75 mm borosilicate glass tubes. […] Nonspecific binding was defined in the presence of cold BMB (1 μM, diluted in PBS (containing 1% DMSO) in the same assay tubes. For the competition binding, 10^−5 to 10^−10 M compounds and 1.87 nM [^3H]BMB were used for the studies. The mixture was incubated at 37° C. for 2 hrs. The bound and free radioactivity were separated by rapid vacuum filtration through Whatman GF/B filters using a Brandel M-24R cell harvester followed by 3×2 mL washes of PBS at room temperature. Filters containing the bound radioligand were dissolved in 6 mL biodegradable counting cocktail overnight and the radioactivity was assayed next day in the scintillation counter (Beckman) with 42% counting efficiency. The results of saturation and inhibition experiments were subjected to nonlinear regression analysis using Graph Pad Prism 4 by which Kd and Ki values were calculated.

[3] = system: myelinated corpus callosum and cerebellum; test: In vitro staining of myelinated white matter in mouse brain tissue sections (fluorescent microscopy); type: binding; conditions: 10 μM, wild-type mouse brain sections
Protocol: We then evaluated the myelin-binding properties of the newly synthesized compounds 3, 6, and 7 through in vitro staining of mouse brain tissue sections. Both myelinated corpus callosum and cerebellar regions were then examined by fluorescent microscopy.
Normal control mice were deeply anesthetized and perfused transcardially with saline (10 mL) followed by fixation with 4% PFA in PBS (10 mL, 4° C., pH 7.6). Brain tissues were then removed, postfixed by immersion in 4% PFA overnight, dehydrated in 30% sucrose solution, embedded in freezing compound (OCT, Fisher Scientific, Suwanee, Ga.), cryostat sectioned at 10 μm on a microtome and mounted on superfrost slides (Fisher Scientific). The brain sections were incubated with compound 3, 6 and 7 (10 μM, 1% DMSO in PBS (10 mM, pH 7.0)) for 20 minutes at room temperature in dark. Excess compounds were washed by briefly rinsing the slides in PBS (10 mM, pH 7.0) and coversliped with fluoromount-G mounting media (Vector Laboratories, Burlingame, Calif.). Sections were then examined under a Leica DRMB microscope equipped for fluorescence.

[4] = system: non-myelin pellets; test: Spectrophotometry-based binding assay with non-myelin pellets; design: species or system rat; conditions: 1 h room temperature; for binding to non-myelin fractions: 10 μM compound per tube; for concentration of free, unbound compound (constant and close to the total concentration initially used): incubated with non-myelin pellet at increasing concentration
Protocol: (§2) FIG. 2 illustrates plots of the concentrations of free, unbound 6 and 7 following incubation with isolated myelin fractions and non-myelin pellets based upon a spectroscopic assay. In these assays, 10 μM of 6 and 7 was added to each solution containing myelin fractions or non-myelin pellets at various concentrations ranging from 0-2.5 μg per tube. Each data point was repeated in triplicate and an average was used.
Binding affinities of newly synthesized compounds 6 and 7 were determined based on spectrophotometry. Myelin sheaths and non-myelin pellets were extracted from rat's brain homogenates according to subcellular fraction protocol (Martenson, R. E.; Deibler, G. E.; Kies, M. W. Extraction of rat myelin basic protein free of other basic proteins of whole central nervous system tissue. An analysis of its electrophoretic heterogeneity. J Biol Chem 1969, 244, 4268-4272). Briefly, the homogenates were successively mixed with different concentrations of sucrose and spun in a Beckman ultracentrifuge. Myelin sheaths and non-myelin containing pellets were well separated according to their different densities and located in different layers of sucrose. The proteins were then collected and washed thoroughly with Colman buffer (10 mM). The desired proteins were aliquoted and frozen at −80° C. for up to 6 months without noticeable change in its properties determined by electrophoresis (data not shown). Prior to binding assays, the protein fractions (myelin and pellet) were thawed and diluted with PBS (10 mM, pH 7.0). A series of concentrations of the protein fractions were incubated with tested compounds (6 and 7, 12.5 μM) for 1 h at room temperature. The free and bound tested compounds were then separated by centrifuging at 6000 rpm for 10 min and quantified.
as §1
In the spectrophotometry-based binding assays, a solution of 6 or 7 (800 μL, 12.5 μM) dissolved in 10% DMSO buffer solution containing 10 mM MgCl2 and 10 mM PBS (pH 7.4) was incubated with isolated myelin or pellets at different concentrations ranging from 0.06 to 14 μg/tube. […] Following incubation at room temperature for 1 hr, the free and bound 6 or 7 was separated by centrifugation at 6000 rpm for 10 min The supernatant was then collected and the UV absorption of free 6 or 7 determined by UV spectrometer were at 350 nm or 363 nm. […] In parallel, non-specific binding was determined using pellets under the same condition. […]

[5] = system: isolated myelin fractions; test: Spectrophotometry-based binding assay with isolated myelin fractions; design: species or system rat; conditions: 10 μM compound per tube, 1 h room temperature
Protocol: as §2
Binding affinities of newly synthesized compounds 6 and 7 were determined based on spectrophotometry. […] The desired proteins were aliquoted and frozen at −80° C. for up to 6 months without noticeable change in its properties determined by electrophoresis (data not shown). […] The free and bound tested compounds were then separated by centrifuging at 6000 rpm for 10 min and quantified.
Sprague-Dawley (SD) rats were asphyxiated with CO2. […] The concentration of myelin and pellet were determined by Bio-Rad Protein Assay.
In the spectrophotometry-based binding assays, a solution of 6 or 7 (800 μL, 12.5 μM) dissolved in 10% DMSO buffer solution containing 10 mM MgCl2 and 10 mM PBS (pH 7.4) was incubated with isolated myelin or pellets at different concentrations ranging from 0.06 to 14 μg/tube. […] In parallel, non-specific binding was determined using pellets under the same condition. […]

[6] = system: myelinated cerebellum; test: In situ tissue staining of myelinated white matter after tail vein injection; type: in vivo, mouse; conditions: 20-80 mg/kg tail vein, three hours post injection, wild-type mice
Protocol: Following our in vitro tissue staining studies, we then evaluated the brain permeability and subsequent myelin-binding properties of 6 and 7 in the mouse brain. A dose of 6 or 7 (20-80 mg/kg) was administered via tail vein injection into wild-type mice. Three hours post injection, the mouse brains were perfused with saline followed by 4% paraformaldehyde (PFA) and removed. The fresh frozen brains were then sectioned. Fluorescent staining of myelinated regions such as the cerebellum were then directly examined under a microscope.
Under anesthesia, wild-type mice were injected with compounds 6 and 7 (20-80 mg/kg) via the tail vein, and the mice were then perfused transcardially with saline (10 ml) followed by 4% PFA in PBS (10 ml, 4° C., pH 7.6). Brain tissues were then removed, postfixed by immersion in 4% PFA overnight, dehydrated in 30% sucrose solution, cryostat sectioned at 16 μm on a microtome and mounted on superfrost slides (Fisher Scientific), and imaged directly under fluorescent microscopy without any further staining.

pKi [2] | binding to non-myelin fractions [4] | concentration of free, unbound compound (constant and close to the total concentration initially used) [4] | binding to myelin fractions (free concentration decreased proportionally with myelin concentration) [5] | Structure (SMILES) | solubility [1] | in vitro fluorescent staining of brain tissue sections [3] | brain entry and in situ labeling of myelin [6]
6.43 | – | – | – | Nc1ccc(/C=C/c2ccc(N)cc2)cc1 [Compound 3, (E)-4,4′-diamino-trans-stilbene] | soluble in EtOH, CH2Cl2, DMSO and other organic solvents | selectively labeled both corpus callosum and cerebellum | –
6.92 | no binding to the non-myelin fractions | ~10.47 µM | specific binding interactions exist | CN(C)c1ccc(/C=C/c2ccc(N)cc2)cc1 [Compound 6, (E)-dimethyl-{4-[2-(4-amino-phenyl)-vinyl]-phenyl}-amine] | soluble in EtOH, CH2Cl2, DMSO and other organic solvents | selectively labeled both corpus callosum and cerebellum | readily entered the mouse brain and selectively labeled myelinated cerebellum
6.90 | no binding to the non-myelin fractions | ~10.53 µM | specific binding interactions exist | CNc1ccc(C=Cc2ccc(N)cc2)cc1 [Compound 7, N-methyl-{4-[2-(4-amino-phenyl)-vinyl]-phenyl}-amine] | soluble in EtOH, CH2Cl2, DMSO and other organic solvents | selectively labeled both corpus callosum and cerebellum | readily entered the mouse brain and selectively labeled myelinated cerebellum
6.31 | – | – | – | Nc1ccc(C=Cc2ccc(I)cc2)cc1 [Compound 9, 4-[2-(4-Iodo-phenyl)-vinyl]-phenylamine] | – | – | –

From patent US9987379B2, “Molecular probes for imaging of myelin” (Case Western Reserve University, priority 2008, dated 2018)
